Where a name gives a salt, the structure may show the parent alone.
Experiments:
[1] = tested on: charcoal entering the cecum; experiment: Antimotility test (charcoal entering the cecum); format: in vivo, mice (adult male); conditions: for ED50: Mus musculus, oral, 1 h before charcoal, examined 3.5 h after charcoal, maximum dosage 30 mg./kg., read-out: Antimotility ED50 (prevented the charcoal from entering the cecum in 50% of the treated mice); for found to be active in the antimotility tests: mice, in words
Experimental: Adult male mice weighing in the range of 20 to 30 g. were starved for 24 hours prior to the test. The animals were then treated orally with the test compound dissolved in water or suspended in methyl cellulose. One hour later, each animal was dosed with 0.2 ml. of a charcoal suspension consisting of 5% activated charcoal suspended in 0.25% methyl cellulose. The animals were sacrificed 3.5 hours after the charcoal administration and their cecums examined for the presence or absence of charcoal. […] A maximum dosage of 30 mg./kg. was used.

[2] = tested on: diarrhea; experiment: Antidiarrheal test (castor oil diarrhea); format: in vivo, Swiss-Webster mice (adult male); conditions: Mus musculus; oral, 1 h before castor oil; diarrhea noted 3 h later; maximum 30 mg./kg.; read-out: Antidiarrheal ED50 (inhibited diarrhea in 50% of the treated mice)
Experimental: In this test adult male Swiss-Webster mice weighing 30 to 40 g. were employed, using 6 mice per treatment. The test compound was administered orally in a dosage series with a maximum of 30 mg./kg. either in water if soluble or else in 0.5% methyl cellulose. One hour after treatment, each animal received a single dose of 0.3 ml. of castor oil, administered orally. The animals were then individually caged and provided food and water.

[3] = tested on: gastric secretion; experiment: Antisecretory test (pyloric ligation, gastric secretion volume); format: in vivo, Wistar rats (adult female); conditions: for ED50: Rattus norvegicus, orally 1 hour prior to pyloric ligation or subcutaneously immediately after, 5 h after ligation, maximum dosage 10 mg./kg., read-out: Antisecretory Activity ED50 (50% reduction in the volume of gastric secretion); for found to be active in the antisecretory test: rats, pyloric ligation, in words
Experimental: Adult female Wistar rats weighing 140 to 160 g. were starved for 24 hours prior to the test. The animals were anaesthetized with ether, shaved on the abdomen, and a small midline incision made. The pylorus was exposed, ligated, and the wound subsequently closed with wound clips. The animals were treated with the test compound administered either orally 1 hour prior to pyloric ligation or subcutaneously immediately after ligation. The test compound was administered in distilled water or 0.5% methyl cellulose. Six animals were used for each treatment. Five hours following the ligation, the animals were sacrificed, the stomachs were carefully removed and opened, and the gastric contents measured for volume and titratable acidity. […] A maximum dosage of 10 mg./kg. was used for the test compounds.

Row | Structure (SMILES) | ED50 [1] [mg/kg] | ED50 [2] [mg/kg] | ED50 [3] [mg/kg] | found to be active in the antimotility tests [1] | found to be active in the antisecretory test [3]
1 | Cc1ccccc1NC(=S)N(C)C [AA] | < 30 | < 30 | > 10 | – | –
2 | Cc1ccc(NC(=S)N(C)C)c(C)c1 [AB] | 4.4 | 3.8 | > 10 | – | –
3 | Cc1cccc(C)c1NC(=S)N(C)C [AC] | < 30 | – | > 10 | – | –
4 | Cc1cc(Cl)ccc1NC(=S)N(C)C [AD] | < 30 | – | > 10 | – | –
5 | CNC(=S)Nc1ccc(C)cc1C [AE] | > 30 | – | > 10 | – | –
6 | CCNC(=S)Nc1ccc(C)cc1C [AF] | > 30 | – | > 10 | – | –
7 | Cc1ccc(NC(=S)NCCN)c(C)c1 [AG] | 13 | 10 | > 10 | – | –
8 | Cc1ccc(NC(=S)NCCN(C)C)c(C)c1 [AH] | 20 | > 30 | > 10 | – | –
9 | Cc1cccc(C)c1NC(=S)NCCN [AI] | 15.5 | 11.5 | > 10 | – | –
10 | Cc1cc(Cl)ccc1NC(=S)NCCN [AJ] | 30 | – | > 10 | – | –
11 | Cc1ccc(NC(=S)NCCS)c(C)c1 [AK] | 15 to 30 | > 30 | > 10 | – | –
12 | Cc1ccc(NC(=S)N(C)CCO)c(C)c1 [AL] | > 30 | > 30 | > 10 | – | –
13 | Cc1ccc(NC(=S)N(CCO)CCO)c(C)c1 [AM] | > 30 | > 30 | > 10 | – | –
14 | Cc1ccc(NC(=S)NC(C)CO)c(C)c1 (stereo not shown) [AN] | > 30 | – | > 10 | – | –
15 | Cc1ccc(NC(=S)NC(C)(C)CO)c(C)c1 [AO] | < 30 | > 30 | > 10 | – | –
16 | Cc1ccc(NC(=S)NCC(C)O)c(C)c1 (stereo not shown) [AP] | > 30 | > 30 | > 10 | – | –
17 | Cc1ccc(NC(=S)NCCCO)c(C)c1 [AQ] | > 30 | > 30 | > 10 | – | –
18 | Cc1cccc(C)c1NC(=O)NCCO [AR] | > 30 | > 30 | > 10 | – | –
19 | Cc1ccccc1NC(=S)NCCO [A] | 11.5 | 7.8 | 3 to 10 | – | –
20 | CCc1ccccc1NC(=S)NCCO [B] | > 15 | 15 to 30 | > 10 | – | –
21 | CC(C)c1ccccc1NC(=S)NCCO [C] | > 30 | > 30 | > 10 | – | –
22 | Cc1ccc(NC(=S)NCCO)cc1 [D] | > 30 | – | – | – | –

Row | Structure (SMILES) | ED50 [1] [mg/kg] | ED50 [2] [mg/kg] | ED50 [3] [mg/kg] | found to be active in the antimotility tests [1] | found to be active in the antisecretory test [3]
23 | CN1CCCN=C1COC(=O)C(O)(c1ccccc1)C1CCCCC1 (stereo not shown) [Daricon, oxyphencyclimine hydrochloride, reference compound] | 3.4 | 50 | 2.4 | – | –
24 | Cc1cccc(NC(=S)NCCO)c1C [E] | 5 | 12.5 | 3 | – | –
25 | Cc1ccc(NC(=S)NCCO)c(C)c1 [F] | 8.6 | 10.5 | 0.5 to 1 | – | –
26 | Cc1ccc(C)c(NC(=S)NCCO)c1 [G] | > 30 | > 30 | > 10 | – | –
27 | Cc1cccc(C)c1NC(=S)NCCO [H] | 2.4 | 4.3 | 0.5 to 1 | – | –
28 | Cc1ccc(NC(=S)NCCO)cc1C [I] | > 30 | > 30 | > 10 | – | –
29 | Cc1cc(C)cc(NC(=S)NCCO)c1 [J] | > 30 | – | > 10 | – | –
30 | Cc1c(Cl)cccc1NC(=S)NCCO [K] | 7.2 | < 30 | > 10 | – | –
31 | Cc1cc(Cl)ccc1NC(=S)NCCO [L] | 15 to 30 | < 30 | 1 to 3 | – | –
32 | CCOC(=O)C1(c2ccccc2)CCN(CCC(C#N)(c2ccccc2)c2ccccc2)CC1 [Lomotil, diphenoxylate hydrochloride, reference compound] | 2 | 9.9 | – | – | –
33 | Cc1ccc(Cl)cc1NC(=S)NCCO [M] | 7.4 | 15 to 30 | > 10 | – | –
34 | Cc1cccc(Cl)c1NC(=S)NCCO [N] | < 30 | – | > 10 | – | –
35 | Cc1cc(Br)ccc1NC(=S)NCCO [O] | 18.5 | > 30 | < 10 | – | –
36 | OCCNC(=S)Nc1ccc(Cl)cc1Cl [P] | > 30 | > 30 | > 10 | – | –
37 | Cc1ccccc1NC(=S)NCCO [Preparation A, 1-(2-methylphenyl)-3-(2-hydroxyethyl)thiourea] | – | – | – | active | active
38 | Cc1ccccc1NC(=S)N(C)C [Preparation AA] | – | – | – | active | –
39 | Cc1ccc(NC(=S)N(C)C)c(C)c1 [Preparation AB] | – | – | – | active | –
40 | Cc1cccc(C)c1NC(=S)N(C)C [Preparation AC] | – | – | – | active | –
41 | Cc1cc(Cl)ccc1NC(=S)N(C)C [Preparation AD, 1-(2-methyl-4-chlorophenyl)-3,3-dimethylthiourea] | – | – | – | active | –
42 | Cc1ccc(NC(=S)NCCN)c(C)c1 [Preparation AG] | – | – | – | active | –
43 | Cc1ccc(NC(=S)NCCN(C)C)c(C)c1 [Preparation AH, 1-(2,4-dimethylphenyl)-3-(2-dimethylaminoethyl)-thiourea] | – | – | – | active | –
44 | Cc1cccc(C)c1NC(=S)NCCN [Preparation AI] | – | – | – | active | –

Row | Structure (SMILES) | ED50 [1] [mg/kg] | ED50 [2] [mg/kg] | ED50 [3] [mg/kg] | found to be active in the antimotility tests [1] | found to be active in the antisecretory test [3]
45 | Cc1cc(Cl)ccc1NC(=S)NCCN [Preparation AJ] | – | – | – | active | –
46 | CCc1ccccc1NC(=S)NCCO [Preparation B] | – | – | – | active | –
47 | Cc1cccc(NC(=S)NCCO)c1C [Preparation E] | – | – | – | active | active
48 | Cc1ccc(NC(=S)NCCO)c(C)c1 [Preparation F, 1-(2,4-dimethylphenyl)-3-(2-hydroxyethyl)-thiourea] | – | – | – | active | active
49 | Cc1cccc(C)c1NC(=S)NCCO [Preparation H, 1-(2,6-dimethylphenyl)-3-(2-hydroxyethyl)thiourea] | – | – | – | active | active
50 | Cc1c(Cl)cccc1NC(=S)NCCO [Preparation K] | – | – | – | active | –
51 | Cc1cc(Cl)ccc1NC(=S)NCCO [Preparation L] | – | – | – | active | active
52 | Cc1ccc(Cl)cc1NC(=S)NCCO [Preparation M] | – | – | – | active | –
53 | Cc1cccc(Cl)c1NC(=S)NCCO [Preparation N] | – | – | – | active | –
54 | Cc1cc(Br)ccc1NC(=S)NCCO [Preparation O] | – | – | – | active | –
55 | COc1ccc(NC(=S)NCCO)c(C)c1 [Preparation R] | – | – | – | active | –
56 | Cc1cc(C)c(NC(=S)NCCO)c(C)c1 [Preparation S] | – | – | – | active | active
57 | OCCNC(=S)Nc1cccc2ccccc12 [Preparation T] | – | – | – | active | –
58 | CC(C)[N+](C)(CCOC(=O)C1c2ccccc2Oc2ccccc21)C(C)C [Pro-Banthine, propantheline bromide, reference compound] | 14.7 | > 80 | 8 | – | –
59 | Cc1cc(O)ccc1NC(=S)NCCO [Q] | > 30 | > 30 | > 10 | – | –
60 | COc1ccc(NC(=S)NCCO)c(C)c1 [R] | 12.5 | 30 | > 10 | – | –
61 | Cc1cc(C)c(NC(=S)NCCO)c(C)c1 [S] | 6.4 | < 30 | < 10 | – | –
62 | OCCNC(=S)Nc1cccc2ccccc12 [T] | 7 | 15 to 30 | – | – | –
63 | OCCNC(=S)Nc1ccc2ccccc2c1 [U] | > 30 | > 30 | > 10 | – | –
64 | CN1[C@@H]2CC[C@H]1C[C@@H](OC(=O)C(CO)c1ccccc1)C2 (stereo partly shown) [atropine, reference compound] | 9.8 | > 40 | – | – | –
65 | COc1ccc2c3c1O[C@H]1[C@@H](O)C=C[C@H]4[C@@H](C2)N(C)CC[C@@]341 [codeine phosphate, reference compound] | 29 | 35 | – | – | –

From patent publication US3950537A, “Gastrointestinally active thioureas” (Rohm and Haas Company, priority 1975, dated 1976)
